Where two headings read alike, the source gives them in different places.
Key:
Spodoptera litura [1] = settings: Spodoptera litura 3rd instar on cabbage plants, dose 1 ml/gm/lit. spray
tomato seedlings = assay: Response of tomato plants, greenhouse growth (Ex. 30); assay type: in vivo; settings: tomato seedlings, dose 1 ml/gm/lit
Thrips [2] = settings: Thrips on cotton leaves; dose 1 ml/gm/lit.; 10 insects/treatment; 48 hrs after application
Alternaria alternata [3] = assay: Alternaria leaf spot/blight on inoculated tomato plants (Ex. 28); assay type: in vivo; settings: tomato plants, Alternaria alternata; after 7 days; dose 1 ml/gm/lit
Spodoptera litura [4] = assay: whole plant or invertebrate; settings: 72 h
Helicoverpa armigera [5] = settings: Helicoverpa armigera 3rd instar on chickpea plants, dose 1 ml/gm/lit. spray
Helicoverpa armigera [6] = settings: Helicoverpa armigera on okra fruits, dose 1 ml/gm/lit., 72 Hrs.
Mealy Bug [7] = settings: mealy bug on cotton plants, green house, dose 1 ml/gm/lit. spray
Thrips [8] = settings: thrips on cotton plants, greenhouse, dose 1 ml/gm/lit. spray
Thrips [9] = assay: whole plant or invertebrate; settings: in Gossypium hirsutum, 48 h
Aphid [10] = test system: Aphid
[11] = cited from earlier work
Spodoptera litura [12] = settings: Spodoptera litura on castor leaves; dose 1 ml/gm/lit.; 10 insects/treatment; 72 hrs after application
Mealy Bug [13] = settings: Mealy Bug on cotton leaves, dose 1 ml/gm/lit., 48 Hrs.
chili seedlings = assay: Response of chili plants, greenhouse growth (Ex. 31); assay type: in vivo; settings: chili seedlings, dose 1 ml/gm/lit
Alternaria alternata [14] = assay: In vitro poisoned food technique against fungus (Ex. 20); assay type: cell-based; settings: poisoned food technique, PDA medium, dose 1 ml/gm/lit., after seven days
Mite [15] = settings: mite on okra plants, green house, dose 1 ml/gm/lit. spray
Mite [16] = test system: Mite
Aphid [17] = settings: Aphids on cotton plants, green house; dose 1 ml/gm/lit.; 10 insects/plant, 10 plants/treatment; 48 hrs
Aphid [18] = assay: whole plant or invertebrate; settings: 48 h
[19] = 72 hrs, corrected for water control
[20] = 10 insects/treatment, 4 replications
[21] = 48 hrs, corrected for water control
[22] = read-out: % Corrected Mortality at 48 Hrs.
[23] = read-out: % Mortality at 48 Hrs.
[24] = Table 13, descriptive, no test described

## Cc1ccc(C(C)C)c(O)c1 [Thymol]
Spodoptera litura [1]; 72 hrs after application
  % Mortality at 72 Hrs.: 65.00%
Spodoptera litura [1]; [19]
  % Corrected Mortality at 72 Hrs.: 63.16%
Tomato seedlings; 5th day after application
  Plant Height 5th Day: 6.81 cm
  Stem Girth 5th Day: 1.90 mm
  CCI 5th Day: 14.12
Tomato seedlings; 10th day after application
  Plant Height 10th Day: 7.62 cm
  Stem Girth 10th Day: 2.53 mm
  CCI 10th Day: 15.42
Tomato seedlings; 10th day
  Plant Height % Increase over pre on 10th Day: 30.48%
  Stem Girth % Increase over pre on 10th Day: 61.42%
  CCI % Increase over pre on 10th Day: 22.87%
  Root Length (cm) 10th Day: 4.82 cm
Tomato seedlings; 10th day, vs water control
  Root Length % Increase over control: 44.89%
Thrips [2]
  Total No. of dead insect at 48 Hrs.: 3.25
Alternaria alternata [3]
  % Disease reduction over Control: 61.16%
Spodoptera litura [4]; read-out: % Corrected Mortality at 72 Hrs.
  mortality at 1 mL or g/L: 65.8%
Spodoptera litura [4]; read-out: % Mortality at 72 Hrs.
  mortality at 1 mL or g/L: 67.5%
Helicoverpa armigera [5]; 72 hrs after application
  % Mortality at 72 Hrs.: 62.50%
Helicoverpa armigera [5]; [19]
  % Corrected Mortality at 72 Hrs.: 62.50%
Helicoverpa armigera [6]; [20]
  Total No. of dead insect at 72 Hrs.: 6.50
Helicoverpa armigera [6]
  % Mortality at 72 Hrs.: 65.00%
Helicoverpa armigera [6]; corrected for water control
  % Corrected Mortality at 72 Hrs.: 65.00%
Mealy Bug [7]; 48 hrs after application
  % Mortality at 48 Hrs.: 55.00%
  Total No. of dead insect at 48 Hrs.: 55.00
Mealy Bug [7]; [21]
  % Corrected Mortality at 48 Hrs.: 50.00%
Thrips [8]; 48 hrs after application
  % Mortality at 48 Hrs.: 35.00%
  Total No. of dead insect at 48 Hrs.: 35.00
Thrips [8]; [21]
  % Corrected Mortality at 48 Hrs.: 27.78%
Thrips [9]; [22]
  mortality at 1 mL or g/L: 22.9%
Thrips [9]; [23]
  mortality at 1 mL or g/L: 32.5%
Aphid [10]; Dose 1 ml/gm/lit., 10 insects/treatment, 4 replications, cotton leaves
  Total No. of dead insect at 48 Hrs.: 6.25
Aphid [10]; in vivo
  % Corrected Mortality at 48 Hrs.: 57.14%
[11]; [24]
  Antioxidant Activity - Mode of action: Antioxidant and food
  Bactericidal Activity - Mode of action: Growth inhibition
  Insecticidal Activities - Mode of action: Inhibited the growth,
  Virucidal Activity - Mode of action: Inhibit virus replication
[11]; Table 13, effect on plants, descriptive
  Phytotonic Effect: Improves
Spodoptera litura [12]
  Total No. of dead insect at 72 Hrs.: 6.75
Mealy Bug [13]; [20]
  Total No. of dead insect at 48 Hrs.: 5.50
Mealy Bug [13]
  % Mortality at 48 Hrs.: 55.00%
Mealy Bug [13]; corrected for water control
  % Corrected Mortality at 48 Hrs.: 52.63%
Chili seedlings; 5th day after application
  CCI 5th Day: 13.80
  Plant Height (cm) 5th Day: 6.13 cm
Chili seedlings; 10th day
  CCI % Increase over pre on 10th Day: 75.74%
  Plant Height % Increase over pre on 10th Day: 58.04%
  Root Lenght (cm) 10th Day: 3.77 cm
  Stem Girth % Increase over pre on 10th Day: 51.36%
Chili seedlings; 10th day after application
  CCI 10th Day: 14.85
  Plant Height (cm) 10th Day: 7.27 cm
Chili seedlings; 10th day, vs water control
  Root Lenght % Increase over control: 37.87%
Alternaria alternata [14]
  Mean colony Diameter (mm): 51.50 mm
Alternaria alternata [14]; vs untreated control, read-out: % Inhibition of growth
  inhibition of growth at 1 mL or g/L: 41.5%
Mite [15]; 48 hrs after application
  % Mortality at 48 Hrs.: 62.50%
  Total No. of dead insect at 48 Hrs.: 62.50
Mite [15]; [21]
  % Corrected Mortality at 48 Hrs.: 60.53%
Mite [16]; Dose 1 ml/gm/lit., 10 insects/treatment, 4 replications, okra leaves
  Total No. of dead insect at 48 Hrs.: 6.00
Mite [16]; in vivo
  % Corrected Mortality at 48 Hrs.: 56.76%
  % Mortality at 48 Hrs.: 60.00%
Aphid [17]
  Total No. of dead insect at 48 Hrs.: 62.50
Aphid [18]; [22]
  mortality at 1 mL or g/L: 55.9%
Aphid [18]; [23]
  mortality at 1 mL or g/L: 62.5%
